Test results as given in patent US12220412B2, “Methods for administering corticosteroids” (Sparrow Pharmaceuticals, Inc., priority 2018, dated 2025).

Assays:
[1] = Population pharmacokinetics model for Compound A from two clinical trials; format: in vivo, human
Description: On the basis of data from two Compound A clinical trials, a population pharmacokinetics model (FIG. 4) was developed using a maximal dose of 20 mg. The selected model to describe the pharmacokinetics of Compound A was a two-compartment disposition model, with a 4-compartment transit absorption, saturable binding from the central compartment, and first-order elimination. Inter-individual variability was implemented on clearance (CL), volume of distribution (V2), absorption rate constant (kA), second order association constant (Kon), first order dissociation constant (Koff), and total number of saturable binding receptors (R). This model had satisfactory goodness-of-fit and acceptable relative standard errors.
CL, kA, R, Kon, and Koff are defined above. BAV is relative bioavailability, kTR is a transit rate constant (equal to kA), k23 and k32 are transfer rate constants between central and peripheral compartments.
The covariate effect was moderate (25% increase of BAV in 88-year old subjects compared to 36-year old subjects).

[2] = system: Adults with painful diabetic peripheral neuropathy; assay: 6-week randomized trial in adults with painful diabetic peripheral neuropathy (pain relief, glycemic control, lipids, blood pressure, weight); format: in vivo, human; design: Weight / HbA1c (%) / Plasma glucose / Urine glucose (% positive) / Cholesterol / Triglycerides / Systolic BP (mm Hg) / Diastolic BP (mm Hg): reference not given here
Description: Adults with painful diabetic peripheral neuropathy were randomized to treatment with SPI-62, placebo for SPI-62, or pregabalin (positive control) for 6 weeks. […] The trial was terminated. Descriptive analysis on parameters of glycemic control, blood lipids, blood pressure, and weight was conducted. […] As this was an exploratory analysis, statistical hypothesis tests were not performed.

magnesium-deficient mice = assay: Corticosterone (CS)-induced tail biting behavior in magnesium-deficient mice given N-methyl-D-aspartate; format: in vivo; conditions: N-methyl-D-aspartate and corticosterone, single doses of 0.3 to 3 mg/kg
Text: (§1) (a) no CS; (b)-(f) CS; dosage of Compound A (mg/kg): (b) 0; (c) 0.01; (d) 0.03; (e) 1; (f) 3.
Increased tail biting, an anxiety behavior, was induced in magnesium-deficient mice with administration of N-methyl-D-aspartate and corticosterone (CS). Tail biting was not induced by N-methyl-D-aspartate without co-administration of CS (FIG. 9(a)).

mice = assay: Corticosterone-induced deficit of Y-maze exploration (alternation rate); format: in vivo; conditions: single doses of 0.3 to 3 mg/kg
Text: as §1
Mice typically prefer to explore the novel arm of a Y-maze, a behavior considered indicative of short-term memory. Corticosterone (CS) decreases the percentage of times mice enter the novel arm of a Y maze, and so is considered to have a negative cognitive effect.

HSD-1 = HSD-1 (Homo sapiens, UniProt P28845); assay: Urinary (tetrahydrocortisol+allotetrahydrocortisol)/tetrahydrocortisone ratio as indicator of HSD-1 activity in clinical trial subjects; format: in vivo; design: from tissue; host or cells: in vivo, human subjects; conditions: for mean HSD-1 ratio (significantly decreased HSD-1 activity): both days 1 and 18
Sequence of HSD-1 (P28845 whole entry): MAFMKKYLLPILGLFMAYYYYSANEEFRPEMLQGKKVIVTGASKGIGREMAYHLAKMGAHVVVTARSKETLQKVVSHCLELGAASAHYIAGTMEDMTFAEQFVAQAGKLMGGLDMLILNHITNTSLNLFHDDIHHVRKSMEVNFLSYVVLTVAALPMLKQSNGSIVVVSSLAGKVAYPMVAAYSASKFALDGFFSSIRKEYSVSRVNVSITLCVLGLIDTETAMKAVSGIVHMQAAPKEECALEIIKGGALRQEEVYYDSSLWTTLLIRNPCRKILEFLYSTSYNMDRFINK
Description: Following a minimum of a 10-hour fast, healthy adult racially diverse male and female subjects were administered Compound A (ASP3662) or placebo for Compound A with 240 mL of room temperature water. Subjects continued to fast from any food and drinks (water was allowed as desired except for 1 hour before and 1 hour after study drug administration) until 4 hours after study drug administration. Urine samples were collected for the measurement of cortisol, cortisone, tetrahydrocortisol (5α, 5β) and tetrahydrocortisone. The cumulative amount of each entity excreted in the urine was calculated for each subject from time zero to 24 hours after dosing (Ae24), from 24 hours after dosing to 48 hours after dosing (Ae48), and Aelast.
The ratio of 5α-tetrahydrocortisol+5β-tetrahydrocortisol to urinary tetrahydrocortisone was used as an indicator of HSD-1 activity. Compound A decreased the 5α-tetrahydrocortisol+5β-tetrahydrocortisol to urinary tetrahydrocortisone ratio with increasing dose compared to placebo, resulting in approximately 80% inhibition at 6 mg. […]

[3] = adults with painful diabetic peripheral neuropathy, 6 weeks treatment, descriptive analysis
[4] = elderly non-Japanese subjects, 20 mg, Day 1 single dose, 24 h urine
[5] = elderly non-Japanese subjects, 20 mg, Day 18 after daily doses Days 5 through 18, 24 h urine
[6] = healthy adult Japanese subjects, 10 mg, Day 1 single dose, 24 h urine
[7] = healthy adult Japanese subjects, 10 mg, Day 18 after daily doses Days 5 through 18, 24 h urine
[8] = healthy adult Japanese subjects, 20 mg, Day 1 single dose, 24 h urine
[9] = healthy adult Japanese subjects, 20 mg, Day 18 after daily doses Days 5 through 18, 24 h urine
[10] = healthy adult Japanese subjects, 50 mg, Day 1 single dose, 24 h urine
[11] = healthy adult Japanese subjects, 50 mg, Day 18 after daily doses Days 5 through 18, 24 h urine

increase of BAV (relative bioavailability), covariate effect of age ([1]; 88-year old subjects compared to 36-year old subjects): 25%
Covariate: age on BAV (relative bioavailability), estimate ([1]; population PK model): 0.200
Koff (first order dissociation constant, saturable binding), estimate ([1]; population PK model): 0.210 h⁻¹
Kon (second order association constant, saturable binding), estimate ([1]; population PK model): 0.0682 µg⁻¹ h⁻¹
R (total number of saturable binding receptors), estimate ([1]; population PK model): 3170 nmol
V2 (volume of distribution), estimate ([1]; population PK model): 90.2 L/70 kg
amount of Compound A corresponding to estimated total number of saturable binding receptors ([1]; population PK model): 1.347 mg
k23 (transfer rate constant between central and peripheral compartments), estimate ([1]; population PK model): 0.00341 h^−1/(70 kg)^−0.25
k32 (transfer rate constant between central and peripheral compartments), estimate ([1]; population PK model): 0.0255 h^−1/(70 kg)^−0.25
kA (absorption rate constant), estimate ([1]; population PK model): 5.38 h⁻¹
CL (clearance), estimate ([1]; population PK model, doses up to 20 mg): 7.24 L/h/(70 kg)^0.75
number of doses to achieve full HSD-1 inhibition (HSD-1; dose level 0.4 mg): 9 to 11 doses
number of doses to achieve full HSD-1 inhibition (HSD-1; dose level 0.7 mg): 5 to 6 doses
number of doses to achieve full HSD-1 inhibition (HSD-1; dose level 2 mg): 2 doses
HSD-1 ratio, Day 1 Mean (HSD-1; [4]): 0.17
HSD-1 ratio, Day 1 Median (HSD-1; [4]): 0.16
HSD-1 ratio, Day 18 Mean (HSD-1; [5]): 0.11
HSD-1 ratio, Day 18 Median (HSD-1; [5]): 0.11
mean HSD-1 ratio (significantly decreased HSD-1 activity) (HSD-1; elderly non-Japanese subjects, 20 mg): approximately 0.1
HSD-1 ratio (tetrahydrocortisol [5α + 5β]/tetrahydrocortisone), Day 1 Median (HSD-1; [6]): 0.19
HSD-1 ratio (tetrahydrocortisol [5α + 5β]/tetrahydrocortisone), Day 1 mean (HSD-1; [6]): 0.18
HSD-1 ratio (tetrahydrocortisol [5α + 5β]/tetrahydrocortisone), Day 18 Mean (HSD-1; [7]): 0.13
HSD-1 ratio (tetrahydrocortisol [5α + 5β]/tetrahydrocortisone), Day 18 Median (HSD-1; [7]): 0.12
HSD-1 ratio (tetrahydrocortisol [5α + 5β]/tetrahydrocortisone), Day 1 Median (HSD-1; [8]): 0.14
HSD-1 ratio (tetrahydrocortisol [5α + 5β]/tetrahydrocortisone), Day 1 mean (HSD-1; [8]): 0.14
HSD-1 ratio (tetrahydrocortisol [5α + 5β]/tetrahydrocortisone), Day 18 Mean (HSD-1; [9]): 0.09
HSD-1 ratio (tetrahydrocortisol [5α + 5β]/tetrahydrocortisone), Day 18 Median (HSD-1; [9]): 0.10
HSD-1 ratio (tetrahydrocortisol [5α + 5β]/tetrahydrocortisone), Day 1 Median (HSD-1; [10]): 0.14
HSD-1 ratio (tetrahydrocortisol [5α + 5β]/tetrahydrocortisone), Day 1 mean (HSD-1; [10]): 0.14
HSD-1 ratio (tetrahydrocortisol [5α + 5β]/tetrahydrocortisone), Day 18 Mean (HSD-1; [11]): 0.10
HSD-1 ratio (tetrahydrocortisol [5α + 5β]/tetrahydrocortisone), Day 18 Median (HSD-1; [11]): 0.09
mean HSD-1 ratio (significantly decreased HSD-1 activity) (HSD-1; healthy adult Japanese subjects, doses of 10 mg, 20 mg and 50 mg): 0.1 to 0.2
SMILES: Cn1c(-c2ccc(C(N)=O)cc2F)nnc1C(C)(C)Oc1c(F)cc(Cl)cc1F [Compound A]
Cholesterol [2, 3]: -0.48 ± 0.12 mM
Diastolic BP (mm Hg) [2, 3]: 0 ± 2 mm Hg
HbA1c (%) [2, 3]: −0.31 ± 0.11%
Plasma glucose [2, 3]: 0.084 ± 0.38 mM
Systolic BP (mm Hg) [2, 3]: −1 ± 3 mm Hg
Triglycerides [2, 3]: -0.11 ± 0.09 mM
Urine glucose (% positive) [2, 3]: −2.5 ± 3.0 % positive
Weight [2, 3]: -0.3 ± 0.3 kg
trends compared to placebo on HbA1c, plasma glucose, urine glucose, cholesterol and triglycerides (not on systolic or diastolic blood pressure or weight) ([2]; exploratory descriptive analysis, no hypothesis tests): Favorable numeric trends
pain relief compared to the placebo group ([2]; interim review after 150 subjects completed treatment): not any better
CS-dependent increase of tail biting behavior (magnesium-deficient mice): fully reversed
Y-maze novel arm exploration behavior (alternation rate) after corticosterone (mice): restored a more normal behavior pattern
